Where two headings read alike, the source gives them in different places.
Key:
Kv1.3 = Kv1.3 (Homo sapiens, UniProt P22001); assay: Kv1.3 channel block, estimated Kd (Table 1); format: binding; settings: for Block phasic or not: Kv1.3
[1] = Cytotoxicity in vitro (remark in Table 1, summary of Table 2); format: cell-based; settings: cells not given
Procedure: Jurkat E6-1 and MEL were seeded at 5×10^5 cells/ml in twelve-well plates. Drug (100 nM, 1 μM, 2.5 μM and 10 μM) was added in a final DMSO concentration of 0.1%. After 48 h of incubation, cells were harvested by sucking them off the plates. Cells were centrifuged, resuspended in 0.5 ml PBS containing 1 μg/ml propidium iodide (PI), and red fluorescence measured on a FACScan flow cytometer (Becton Dickinson) after 20 min (10^4 cells of every sample being analyzed). The percentage of dead cells was determined by their PI uptake. Incubation with 20% DMSO served as a control for setting the gates of the flow cytometer for dead cells.

[2] = system: human peripheral blood lymphocytes; assay: Proliferation test, [3H]-thymidine incorporation assay, anti-CD3 stimulated; format: cell-based; settings: Homo sapiens, Lymphocyte; anti-CD3 stimulation, 48 h; read-out: EC50, suppression of proliferation of human peripheral blood lymphocytes
Procedure: Proliferation Test [^3H]-Thymidine Incorporation Assay
Resting peripheral blood mononuclear cells from healthy volunteers were seeded at 2×10^5 cells per well in medium (RPMI 1640 supplemented 10% fetal calf serum, 2 mM glutamine, 1 mM sodium pyruvate, 1% nonessential amino acids, 100 units/ml penicillin, 100 μg/ml streptomycin and 50 μM β-mercaptoethanol) in flat-bottom 96 well plates (final volume 200 μl). Cells pre-incubated with drug (60 min), were stimulated with 5 ng/ml anti-CD3 Ab) for 48 h. [^3H]-Thymidine (1 μCi per well) was added for the last 6 h. Cells were harvested onto glass fibre filters and radioactivity measured in a scintillation counter. All experiments were done in triplicate. Results are reported as normalised for maximum [^3H]-thymidine incorporation for controls.

[3] = Kv1.3, end, read-out: Est. Kd, Kd end
[4] = Kv1.3, peak, read-out: Est. Kd, Kd peak

Chain of Kv1.3 (P22001 whole entry): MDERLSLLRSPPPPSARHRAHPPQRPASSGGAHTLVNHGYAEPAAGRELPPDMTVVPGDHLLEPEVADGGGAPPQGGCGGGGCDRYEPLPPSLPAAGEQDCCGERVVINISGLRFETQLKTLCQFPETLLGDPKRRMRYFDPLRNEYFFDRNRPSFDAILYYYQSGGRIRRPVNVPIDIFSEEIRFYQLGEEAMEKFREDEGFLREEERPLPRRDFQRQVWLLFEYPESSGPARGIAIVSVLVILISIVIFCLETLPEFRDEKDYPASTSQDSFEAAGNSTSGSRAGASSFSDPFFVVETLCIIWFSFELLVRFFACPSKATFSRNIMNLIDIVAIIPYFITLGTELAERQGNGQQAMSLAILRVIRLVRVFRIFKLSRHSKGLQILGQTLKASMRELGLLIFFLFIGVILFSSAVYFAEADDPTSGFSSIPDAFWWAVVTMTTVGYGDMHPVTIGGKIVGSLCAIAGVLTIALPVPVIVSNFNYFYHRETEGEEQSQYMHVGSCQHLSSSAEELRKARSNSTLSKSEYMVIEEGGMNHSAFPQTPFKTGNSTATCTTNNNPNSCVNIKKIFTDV

Structure (SMILES)	Kd (Kv1.3; [3]) [µM]	Kd (Kv1.3; [4]) [µM]	melting point [°C]	also measured
COc1c(C(=O)/C=C/c2ccc([N+](=O)[O-])s2)c(O)c(OC)c2occc12 [Example 57]				Effect on Kv1.3 (Kv1.3; at 10 μM): No effect at 10 μM
COc1c(C(=O)/C=C/C=C/c2ccccc2)c(O)c(OC)c2occc12 [Example 40]				Effect on Kv1.3 (Kv1.3; at 1 μM): no effect at 1 μM Not tested against other channels
COc1c(C(=O)/C=C/c2ccc(C)s2)c(O)c(OC)c2occc12 [Example 55]	0.5	3		Cytotoxicity (remark in Table 1) [1]: Cytotoxic Mp 103 Orange prisms
COc1c(C(=O)/C=C/c2cccc(Oc3ccccc3)c2)c(O)c(OC)c2occc12 [Example 34]				Effect on Kv1.3 (Kv1.3; at 5 μM): no effect at 5 μM Not tested against other channels
COc1c(C(=O)/C=C/c2ccc(C(C)C)cc2)c(O)c(OC)c2occc12 [Example 20]		3		Block phasic or not (Kv1.3): not phasic
COc1c(C(=O)/C=C/c2ccccc2C(=O)O)c(O)c(OC)c2occc12 [Example 41]				Effect on Kv1.3 (Kv1.3; at 20 μM): no effect at 20 μM Not tested against other channels
COc1c(C(=O)/C=C/c2cccc(Oc3ccc(C)cc3)c2)c(O)c(OC)c2occc12 [Example 37]				Effect on Kv1.3 (Kv1.3; at 1 μM): no effect at 1 μM Not tested against other channels
CCN(CC)c1ccc(/C=C/C(=O)c2c(O)c(OC)c3occc3c2OC)cc1 [Example 13]		18		Block phasic or not (Kv1.3): not phasic
COc1c(C(=O)/C=C/c2cccc(Oc3cccc(C(F)(F)F)c3)c2)c(O)c(OC)c2occc12 [Example 36]				Effect on Kv1.3 (Kv1.3; at 5 μM): no effect at 5 μM Not tested against other channels
COc1c(O)c(C(=O)CCc2ccccc2)c(OC)c2c1OCC2 [Example 3]		2		
COc1c(C(=O)/C=C/c2c(F)c(F)c(F)c(F)c2F)c(O)c(OC)c2occc12 [Example 30]	3.5	5	112 to 114	
CCN(CC)CCOc1ccc(/C=C/C(=O)c2c(O)c(OC)c3occc3c2OC)cc1 [Example 12]				Effect on Kv1.3 (Kv1.3; at 10 μM): 10 μM no effect Not tested against other channels
CCCOc1ccc(/C=C/C(=O)c2c(O)c(OC)c3occc3c2OC)cc1 [Example 4]		45	74 to 75	Block phasic or not (Kv1.3): not phasic
COc1c(C(=O)/C=C/c2ccc(C(F)(F)F)cc2)c(O)c(OC)c2occc12 [Example 33]	4	10		
COc1c(C(=O)CCc2ccccc2)c(O)c(OC)c2occc12 [Example 2]	0.3	0.8		
COc1c(C(=O)/C=C/c2ccccc2)c(OCc2ccccc2)c(OC)c2occc12 [Example 60]	0.2	10		

Structure (SMILES)	Kd (Kv1.3; [3]) [µM]	Kd (Kv1.3; [4]) [µM]	melting point [°C]	also measured
COc1c(C(=O)/C=C/c2ccc3ccccc3n2)c(O)c(OC)c2occc12 [Example 58]				Effect on Kv1.3 (Kv1.3; at 5 μM): No effect at 5 μM
COc1c(C(=O)/C=C/c2ccc3ccccc3c2)c(O)c(OC)c2occc12 [Example 39]				Effect on Kv1.3 (Kv1.3; at 5 μM): no effect at 5 μM Not tested against other channels
COc1c(C(=O)/C=C/c2cccc3ccccc23)c(O)c(OC)c2occc12 [Example 38]				Effect on Kv1.3 (Kv1.3; at 5 μM): no effect at 5 μM Not tested against other channels
COc1c(C(=O)/C=C/c2ccc(N(C)C)cc2)c(O)c(OC)c2occc12 [Example 42]	5	14		
COc1c(C(=O)/C=C/c2cccc(C(F)(F)F)c2)c(O)c(OC)c2occc12 [Example 32]		40		Block phasic or not (Kv1.3): not phasic
COc1c(C(=O)/C=C/c2ccc(NC(C)=O)cc2)c(O)c(OC)c2occc12 [Example 6]		35	180 to 181	Block phasic or not (Kv1.3): not phasic
COc1c(C(=O)/C=C/c2ccc(CO)o2)c(O)c(OC)c2occc12 [Example 46]			120 to 121	Effect on Kv1.3 (Kv1.3; at 20 μM): no effect at 20 μM Not tested against other channels
COc1c(C(=O)/C=C/c2ccc3c(c2)OCO3)c(O)c(OC)c2occc12 [Example 26]	1.5	9	139 to 140	
COc1c(C(=O)/C=C/c2ccc(C#N)cc2)c(O)c(OC)c2occc12 [Example 11]		12	196 to 198	Block phasic or not (Kv1.3): not phasic
COc1c(C(=O)/C=C/c2cccc(Oc3ccc(Cl)cc3)c2)c(O)c(OC)c2occc12 [Example 35]			107 to 108	Effect on Kv1.3 (Kv1.3; at 5 μM): no effect at 5 μM Not tested against other channels
COc1c(C(=O)/C=C/C=C/c2ccc(N(C)C)cc2)c(O)c(OC)c2occc12 [Example 44]		22		Block phasic or not (Kv1.3): not phasic
COc1c(C(=O)/C=C/c2ccc([N+](=O)[O-])cc2)c(O)c(OC)c2occc12 [Example 29]				Behaviour of stocks in the Kv1.3 test (Kv1.3; stock solutions): Stocks precipitate
COc1c(C(=O)/C=C/c2ccc(-c3ccccc3)cc2)c(O)c(OC)c2occc12 [Example 5]		30	122 to 124	Block phasic or not (Kv1.3): not phasic
CCOc1ccc(/C=C/C(=O)c2c(O)c(OC)c3occc3c2OC)cc1 [Example 14]	1.5	10		
COc1c(C(=O)/C=C/c2sccc2C)c(O)c(OC)c2occc12 [Example 56]	6	25		

The next lines start with results.

Kd (Kv1.3; [3]) [µM]	Kd (Kv1.3; [4]) [µM]	melting point [°C]	Structure (SMILES)	also measured
9	30		COc1c(C(=O)/C=C/c2ccc[nH]2)c(O)c(OC)c2occc12 [Example 51]	
8	16		COc1c(C(=O)/C=C/c2ccccc2O)c(O)c(OC)c2occc12 [Example 43]	
1	5	117 to 118	COc1ccccc1/C=C/C(=O)c1c(O)c(OC)c2occc2c1OC [Example 25]	
	15		COc1c(C(=O)/C=C/c2cccc(Cl)c2)c(O)c(OC)c2occc12 [Example 8]	Block phasic or not (Kv1.3): not phasic
0.9	10		COc1c(C(=O)/C=C/c2ccc(O)cc2)c(O)c(OC)c2occc12 [Example 19]	
	12	160 to 161	COc1c(C(=O)/C=C/c2ccccc2Cl)c(O)c(OC)c2occc12 [Example 7]	Block phasic or not (Kv1.3): not phasic
0.1	1.5		COc1c(C(=O)/C=C/c2ccc(C)cc2)c(O)c(OC)c2occc12 [Example 23]	EC50 [2]: 1.5 µM
		138 to 140	COc1c(C(=O)/C=C/c2c[nH]c3ccccc23)c(O)c(OC)c2occc12 [Example 47]	Effect on Kv1.3 (Kv1.3; at 5 μM): no effect at 5 μM Not tested against other channels
5	15	131 to 132	COc1c(C(=O)/C=C/c2ccccc2[N+](=O)[O-])c(O)c(OC)c2occc12 [Example 27]	
15	40	87 to 88	COc1c(C(=O)/C=C/c2cccn2C)c(O)c(OC)c2occc12 [Example 52]	
	20	182 to 183	COc1c(C(=O)/C=C/c2cccc(C#N)c2)c(O)c(OC)c2occc12 [Example 10]	Block phasic or not (Kv1.3): not phasic
9	20		COc1c(C(=O)/C=C/c2cccnc2)c(O)c(OC)c2occc12 [Example 48]	
12	90		COc1c(C(=O)/C=C/c2ccccc2F)c(O)c(OC)c2occc12 [Example 15]	
0.3	1.5	97 to 98	COc1c(C(=O)/C=C/c2cccc(C)c2)c(O)c(OC)c2occc12 [Example 22]	
1	8		COc1c(C(=O)/C=C/c2ccc(F)cc2)c(O)c(OC)c2occc12 [Example 17]	
	40	150 to 151	COc1c(C(=O)/C=C/c2ccccc2C(F)(F)F)c(O)c(OC)c2occc12 [Example 31]	Block phasic or not (Kv1.3): not phasic
	12	86 to 87	COc1c(C(=O)/C=C/c2cccc(C)n2)c(O)c(OC)c2occc12 [Example 50]	Block phasic or not (Kv1.3): not phasic
4	20		COc1c(C(=O)/C=C/c2ccco2)c(O)c(OC)c2occc12 [Example 45]	
		97 to 98	COc1c(C(=O)/C=C/c2cccc([N+](=O)[O-])c2)c(O)c(OC)c2occc12 [Example 28]	block (Kv1.3; Kv1.3, at 5 μM): 5-10% block at 5 μM
	20		COc1c(C(=O)/C=C/c2ccncc2)c(O)c(OC)c2occc12 [Example 49]	Block phasic or not (Kv1.3): not phasic
	2		COc1c(C(=O)/C=C/c2ccccc2C)c(O)c(OC)c2occc12 [Example 21]	Block phasic or not (Kv1.3): not phasic
4	35	121 to 123	COc1c(C(=O)/C=C/c2cccc(F)c2)c(O)c(OC)c2occc12 [Example 16]	
	7		COc1c(C(=O)/C=C/c2ccc(Cl)cc2)c(O)c(OC)c2occc12 [Example 9]	Block phasic or not (Kv1.3): not phasic
